Tests used:
Diaporthe citri [1] = experiment: Citrus Melanose-controlling Test; type: in vivo; conditions: 500 ppm; for Infested Leaves (%): 24 days after inoculation; for Infestation Rate / Number of Leaves Showing Infestation Index 0 / Number of Leaves Showing Infestation Index 1 / Number of Leaves Showing Infestation Index 2 / Number of Leaves Showing Infestation Index 3 / Number of Leaves Showing Infestation Index 4: 24 days; for Infestation Rate: (Σnf/4N)×100; for Number of Leaves Showing Infestation Index 0: index 0 = 0-25% infested area; for Number of Leaves Showing Infestation Index 1: index 1 = 26-50% infested area; for Number of Leaves Showing Infestation Index 2: index 2 = 51-75% infested area; for Number of Leaves Showing Infestation Index 3: index 3 = 76-90% infested area; for Number of Leaves Showing Infestation Index 4: index 4 = 91-100% infested area
Alternaria kikuchiana [2] = experiment: Pear Black Spot-controlling Test; conditions: 500 ppm, six days after inoculation
Procedure: Pear Black Spot (Alternaria kikuchiana)-controlling Test
(§1) The resulting solution is sprayed on unfolded leaves of potted young pears (variety: Niju-seiki) in an amount corresponding to 600 l/10a per pot. After air-drying, the unfolded leaves are inoculated with Alternaria kikuchiana, by spraying a suspension of conidia thereof containing 30 conidia per microscopic field (magnification: X200).
(§2) After inoculation, the potted young pears are allowed to stand at a temperature of 27° C. in a moist room for one day and then transferred to a greenhouse. Six days after inoculation, the leaf area infested by pear black spot, i.e., the area of pathologic spots on a leaf is examined on 5 unfolded leaves per pot and an average infestation rate is then calculated.

Alternaria kikuchiana [3] = experiment: Spore-germination Inhibiting Test; type: cell-based; conditions: 10 ppm, 27° C., 20 hours
Procedure: Spore-germination Inhibiting Test for Alternaria kukuchiana An apricot medium is inoculated with Alternaria kikuchiana and incubated at a temperature of 27° C. for 7-10 days to form conidia on the medium. […] 0.02 Ml of the prepared spore suspension containing the compound according to the present invention is dropped on a slide glass and incubated at a temperature of 27° C. under moist conditions for 20 hours. Thereafter, whether or not the spores germinate is examined under a microscope and the spore-germination rate is then calculated.

[4] = system: potted young oranges (variety: Unshu); experiment: Phytotoxicity of treating compound, Citrus Melanose test; conditions: 500 ppm
[5] = system: potted young pears (variety: Niju-seiki); experiment: Phytotoxicity of treating compound, Pear Black Spot test; conditions: 500 ppm, damaged area on leaves
Procedure: as §1, §2
*The phytotoxicity of the treating compound is evaluated according to the

[6] = system: potted young oranges (variety: Unshu); experiment: Phytotoxicity of treating compound, residual activity test; conditions: 1000 ppm, 23 mm/hr of rain
Diaporthe citri [7] = experiment: Test of Residual Activity against Citrus Melanose; type: in vivo; conditions: 1000 ppm, 23 mm/hr of rain; for Infested Leaves (%): 24 days after inoculation; for Infestation Rate: 24 days, (Σnf/4N)×100; for Number of Leaves Showing Each Infestation Index: 0: index 0 = 0-25% infested area; for Number of Leaves Showing Each Infestation Index: 1: index 1 = 26-50% infested area; for Number of Leaves Showing Each Infestation Index: 2: index 2 = 51-75% infested area; for Number of Leaves Showing Each Infestation Index: 3: index 3 = 76-90% infested area; for Number of Leaves Showing Each Infestation Index: 4: index 4 = 91-100% infested area

| SMILES | Infested Leaves (%) (Diaporthe citri [1]) | Infestation Rate (Diaporthe citri [1]) | Number of Leaves Showing Infestation Index 0 (Diaporthe citri [1]) | Number of Leaves Showing Infestation Index 1 (Diaporthe citri [1]) | Number of Leaves Showing Infestation Index 2 (Diaporthe citri [1]) | Number of Leaves Showing Infestation Index 3 (Diaporthe citri [1]) | Number of Leaves Showing Infestation Index 4 (Diaporthe citri [1]) | Average Infestation Rate (%) (Based on infested area) (Alternaria kikuchiana [2]) | Spore-germination Rate (%) (Alternaria kikuchiana [3]) | Phytotoxicity of Treating Compound [4] | Phytotoxicity of Treating Compound [5] | Phytotoxicity of Treating Compound [6] | Infested Leaves (%) (Diaporthe citri [7]) | Infestation Rate (Diaporthe citri [7]) | Number of Leaves Showing Each Infestation Index: 0 (Diaporthe citri [7]) | Number of Leaves Showing Each Infestation Index: 1 (Diaporthe citri [7]) | Number of Leaves Showing Each Infestation Index: 2 (Diaporthe citri [7]) | Number of Leaves Showing Each Infestation Index: 3 (Diaporthe citri [7]) | Number of Leaves Showing Each Infestation Index: 4 (Diaporthe citri [7]) |
| --- | --- | --- | --- | --- | --- | --- | --- | --- | --- | --- | --- | --- | --- | --- | --- | --- | --- | --- | --- |
| O=C1C(Cl)=C(Cl)C(=O)N1c1ccccc1OC(F)F [compound 1, 2,3-dichloro-N-(o-difluoromethoxyphenyl)maleimide] | 0.5% | 0.1 | 221 leaves | 1 leaves | 0 leaves | 0 leaves | 0 leaves | 9% | 7% | - (0%) | ± (1-5%) | ± (1-5%) | 22% | 7 | 122 leaves | 27 leaves | 6 leaves | 1 leaves | 0 leaves |
| O=C1C(Cl)=C(Cl)C(=O)N1c1cccc(OC(F)F)c1 [compound 2, 2,3-dichloro-N-(m-difluoromethoxyphenyl)maleimide] | 0.5% | 0.1 | 210 leaves | 1 leaves | 0 leaves | 0 leaves | 0 leaves | 9% | 0% | - (0%) | ± (1-5%) | ± (1-5%) | 2% | 0.5 | 181 leaves | 4 leaves | 0 leaves | 0 leaves | 0 leaves |
| O=C1C=CC(=O)N1c1ccccc1OC(F)F [compound 4] | 1.0% | 0.2 | 218 leaves | 2 leaves | 0 leaves | 0 leaves | 0 leaves | 15% | 7% | - (0%) | ± (1-5%) | + (6-25%) | 82% | 30 | 30 leaves | 82 leaves | 43 leaves | 10 leaves | 0 leaves |
| O=C1C=CC(=O)N1c1cccc(OC(F)F)c1 [compound 5] | 85% | 43 | 33 leaves | 63 leaves | 71 leaves | 30 leaves | 18 leaves | 55% | 5% | ++ (26-50%) | +++ (≥51%) | ++ (26-50%) | 87% | 43 | 22 leaves | 43 leaves | 72 leaves | 28 leaves | 7 leaves |
| O=C1C=CC(=O)N1c1ccc(OC(F)F)cc1 [compound 6] | 98% | 43 | 257 leaves | 110 leaves | 103 leaves | 44 leaves | 0 leaves | 36% | 4% | + (6-25%) | ++ (26-50%) | + (6-25%) | 91% | 34 | 15 leaves | 86 leaves | 45 leaves | 13 leaves | 0 leaves |
| COc1ccccc1N1C(=O)C(Cl)=C(Cl)C1=O [compound 7] | 98% | 43 | 5 leaves | 85 leaves | 111 leaves | 32 leaves | 0 leaves | 32% | 75% | + (6-25%) | ++ (26-50%) | + (6-25%) | 29% | 9 | 115 leaves | 36 leaves | 11 leaves | 1 leaves | 0 leaves |
| COc1cccc(N2C(=O)C(Cl)=C(Cl)C2=O)c1 [compound 8] | 10% | 3.3 | 109 leaves | 14 leaves | 7 leaves | 1 leaves | 0 leaves | 20% | 25% | - (0%) | ± (1-5%) | - (0%) | 78% | 31 | 35 leaves | 58 leaves | 61 leaves | 7 leaves | 0 leaves |
| COc1ccc(N2C(=O)C(Cl)=C(Cl)C2=O)cc1 [compound 9] | 98% | 43 | 5 leaves | 86 leaves | 115 leaves | 30 leaves | 0 leaves | 28% | 9% | - (0%) | ± (1-5%) | - (0%) | 36% | 12 | 113 leaves | 45 leaves | 18 leaves | 1 leaves | 0 leaves |
| CC(C)NC(=O)N1CC(=O)N(c2cc(Cl)cc(Cl)c2)C1=O [iprodione, 1-Isopropylcarbamoyl-3-(3',5'-dichlorophenyl)-hydantoin] | – | – | – | – | – | – | – | 11% | – | – | - (0%) | – | – | – | – | – | – | – | – |
| [Cu+2].[O-]c1cccc2cccnc12.[O-]c1cccc2cccnc12 [oxinecopper, 8-Hydroxyquinoline-Cu] | – | – | – | – | – | – | – | – | – | – | – | ± (1-5%) | 81% | 26 | 35 leaves | 113 leaves | 37 leaves | 2 leaves | 0 leaves |

Reference: patent US4455315A, “N-(Difluoromethoxy substituted phenyl)-dichloromaleimides used in agricultural and horticultural fungicidal methods” (Showa Denko Kabushiki Kaisha, priority 1980, dated 1984)
